This experiment concerns the target T1, CYP106A2 (Priestia megaterium, UniProt Q06069).
T1 sequence (Q06069 1-410): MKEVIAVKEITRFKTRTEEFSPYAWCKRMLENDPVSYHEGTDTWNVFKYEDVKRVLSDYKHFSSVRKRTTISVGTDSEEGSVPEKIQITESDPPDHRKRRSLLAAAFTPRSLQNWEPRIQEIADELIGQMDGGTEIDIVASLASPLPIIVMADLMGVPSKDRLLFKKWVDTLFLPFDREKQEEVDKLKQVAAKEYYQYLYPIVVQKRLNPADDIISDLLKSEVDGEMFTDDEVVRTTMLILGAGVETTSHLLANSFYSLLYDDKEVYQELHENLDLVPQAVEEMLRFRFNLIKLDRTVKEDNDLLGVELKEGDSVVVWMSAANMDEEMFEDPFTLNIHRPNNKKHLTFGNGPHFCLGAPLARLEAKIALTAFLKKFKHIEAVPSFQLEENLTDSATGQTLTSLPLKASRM
The experiment in a line: UV-vis difference spectroscopy titration (type I high-spin shift, tandem cuvettes). Type of experiment: binding.

The structures appear in SMILES notation.

These results are taken from publication PMC4080778, “Steroid conversion with CYP106A2 – production of pharmaceutically interesting DHEA metabolites” (Microbial Cell Factories, 2014).

With `C[C@]12CCC(=O)C=C1CC[C@@H]1[C@@H]2CC[C@]2(C)C(=O)CC[C@@H]12` [androstenedione], the Kd is 92 ± 11 µM.

What is called Kd is the equilibrium constant for the complex coming apart.
